IC50 data for 86 compounds are collected here from the Kinase Knowledgebase extract (Sharma et al. 2016).

The target in this assay is PIK3CA (human) (UniProt P42336). The experiment in a line: Assessment of PIK3CA Kinase Activity.
Chain of PIK3CA (human) (P42336 whole entry, looked up): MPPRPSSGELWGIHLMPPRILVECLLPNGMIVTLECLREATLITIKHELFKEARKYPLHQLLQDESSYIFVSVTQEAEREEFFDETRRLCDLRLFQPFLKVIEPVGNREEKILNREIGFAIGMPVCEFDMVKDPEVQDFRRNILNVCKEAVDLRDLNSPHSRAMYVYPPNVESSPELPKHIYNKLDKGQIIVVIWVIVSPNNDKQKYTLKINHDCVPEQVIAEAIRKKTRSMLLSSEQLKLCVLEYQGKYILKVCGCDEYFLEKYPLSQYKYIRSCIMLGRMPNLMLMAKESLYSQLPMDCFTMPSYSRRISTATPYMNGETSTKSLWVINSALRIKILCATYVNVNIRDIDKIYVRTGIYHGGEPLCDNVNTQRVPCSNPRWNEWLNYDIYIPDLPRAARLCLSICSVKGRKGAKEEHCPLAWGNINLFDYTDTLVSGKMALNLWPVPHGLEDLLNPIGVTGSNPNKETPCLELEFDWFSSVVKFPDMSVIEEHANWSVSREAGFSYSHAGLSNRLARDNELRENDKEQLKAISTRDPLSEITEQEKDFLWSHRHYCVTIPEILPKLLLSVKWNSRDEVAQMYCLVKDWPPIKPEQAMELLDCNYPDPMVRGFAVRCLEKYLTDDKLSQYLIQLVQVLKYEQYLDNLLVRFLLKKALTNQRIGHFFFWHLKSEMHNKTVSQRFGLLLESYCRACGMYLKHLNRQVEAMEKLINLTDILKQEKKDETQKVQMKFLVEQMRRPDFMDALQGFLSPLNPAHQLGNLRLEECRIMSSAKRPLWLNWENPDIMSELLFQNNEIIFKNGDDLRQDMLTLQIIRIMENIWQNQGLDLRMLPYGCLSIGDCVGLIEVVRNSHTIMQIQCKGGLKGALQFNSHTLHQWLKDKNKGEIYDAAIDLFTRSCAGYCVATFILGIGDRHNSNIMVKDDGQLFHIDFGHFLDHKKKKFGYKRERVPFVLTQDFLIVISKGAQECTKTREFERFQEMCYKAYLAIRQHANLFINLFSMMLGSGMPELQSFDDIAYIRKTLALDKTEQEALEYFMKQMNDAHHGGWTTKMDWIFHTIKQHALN
For orientation: IC50 means the midpoint of a concentration-inhibition curve. The low end stands for inhibition by little substance, the high end for a need for much substance. Take `Cc1nc(-c2cn3c(n2)-c2cnc(N4CC(F)(F)C[C@H]4C(N)=O)cc2OCC3)n(C(C)C)n1`: the IC50 was < 1000 nM. With `Cc1nc(-c2cn3c(n2)-c2ccc([C@@H]4CCCN4C(N)=O)cc2OCC3)n(C(C)C)n1` the figure was < 1000 nM; with `CC(C)(CO)NC(=O)c1ccc2c(c1)-c1nc(-c3ncnn3C3CCS(=O)(=O)C3)cn1CCO2` (stereo unspecified), < 1000 nM.

On to `CC(C)(CO)NC(=O)c1ccc2c(c1)-c1nc(-c3ncnn3-c3ccccc3Cl)cn1CCO2`, for which the IC50 was < 1000 nM. With `CC(C)n1ncnc1-c1cn2c(n1)-c1ccc(C3CCOCC3)cc1OCC2` the figure was < 1000 nM; with `Cc1nc(-c2cn3c(n2)-c2ccc([C@H]4CCCN4C(N)=O)cc2OCC3)n(C(C)C)n1`, < 1000 nM. Take `CC(C)n1ncnc1-c1cn2c(n1)-c1ccc(C3CCN(CC(=O)N(C)C)CC3O)cc1OCC2` (stereo unspecified): the IC50 was < 1000 nM. `Cc1nc(-c2cn3c(n2)-c2ccc(N4CC[C@H]4C(N)=O)cc2OCC3)n(CC(F)(F)F)n1`: the IC50 was < 1000 nM. With `CNC(=O)CN1CCC(c2ccc3c(c2)OCCn2cc(-c4nc(C)nn4C(C)C)nc2-3)CC1` the figure was < 1000 nM. With `CC(C)n1ncnc1-c1cn2c(n1)-c1ccc([C@H](C)C(N)=O)cc1OCC2` the figure was < 1000 nM; with `CC(C)n1ncnc1-c1cn2c(n1)-c1cnc(N(C)CC(N)=O)cc1OCC2`, < 1000 nM; with `CC(C)n1ncnc1-c1cn2c(n1)-c1ccc(CN(C)C(N)=O)cc1OCC2`, < 1000 nM. As to `CCOc1ccc2c(c1)OCCn1cc(-c3nc(C)nn3C(C)C)nc1-2`, the IC50 is < 1000 nM.

Take `CC(C)n1ncnc1-c1cn2c(n1)-c1ccc(OC3COC3)cc1OCC2`: the IC50 is < 1000 nM. With `NC(=O)CNc1ccc2c(c1)OCCn1cc(-c3ncnn3CC(F)(F)F)nc1-2` the figure was < 1000 nM. For the compound `CC(C)n1ncnc1-c1cn2c(n1)-c1cnc(NCc3ccn[nH]3)cc1OCC2`, the IC50 was < 1000 nM. For `CC(C)n1ncnc1-c1cn2c(n1)-c1ccc(NCC3(N)COC3)cc1OCC2`, the IC50 was < 1000 nM. With `CCCC(Oc1ccc2c(c1)OCCn1cc(-c3ncnn3C(C)C)nc1-2)C(N)=O` (stereo unspecified) the figure was < 1000 nM; with `CNc1nc(-c2cn3c(n2)-c2ccccc2OCC3)n(C(C)C)n1`, < 1000 nM.

As for `CC(C)n1ncnc1-c1cn2c(n1)-c1ccc(O)cc1OCC2`, the IC50 was < 1000 nM. With `CC(C)n1ncnc1-c1cn2c(n1)-c1cnc(N3CCC[C@H]3C(N)=O)cc1OCC2` the figure was < 1000 nM; with `Cc1nc(-c2cn3c(n2)-c2cnc(N4C[C@@H](F)C[C@H]4C(N)=O)cc2OCC3)n(C(C)C)n1`, < 1000 nM.

For `CC(C)n1ncnc1-c1cn2c(n1)-c1ccc(N3CC(N)(CO)C3)cc1OCC2`, the IC50 was < 1000 nM. Take `NC(=O)[C@@H]1CNCCN1c1ccc2c(c1)OCCn1cc(-c3ncnn3CC(F)(F)F)nc1-2`: the IC50 is < 1000 nM. With `CC(C)n1ncnc1-c1cn2c(n1)-c1ccc(O[C@@H](C)C(=O)O)cc1OCC2` the figure was < 1000 nM. With `Cc1ncc(-c2ccc3c(c2)OCCn2cc(-c4ncnn4C(C)C)nc2-3)n1CCO` the figure was < 1000 nM; with `CC(C)n1ncnc1-c1cn2c(n1)-c1cc(-c3ccc[nH]c3=O)ncc1OCC2`, < 1000 nM. With `CC(C)n1ncnc1-c1cn2c(n1)-c1ccc(N3CCN(C)CC3)nc1OCC2` the figure was < 1000 nM; with `CC[C@H](Oc1ccc2c(c1)OCCn1cc(-c3ncnn3C(C)C)nc1-2)C(N)=O`, < 1000 nM; with `CC(C)(CO)NC(=O)c1ccc2c(c1)-c1nc(-c3ncnn3CC(F)(F)F)cn1CCO2`, < 1000 nM.

Turning to `CC(C)n1ncnc1-c1cn2c(n1)-c1ccc(-c3ccc(N)nc3)cc1OCC2`, the IC50 is < 1000 nM. With `Cc1nc(-c2cn3c(n2)-c2ccc(OC(C)C)cc2OCC3)n(C(C)C)n1` the figure was < 1000 nM. With `CNC(=O)C(C)(C)N1CCC(c2ccc3c(c2)OCCn2cc(-c4ncnn4C(C)C)nc2-3)C(O)C1` (stereo unspecified) the figure was < 1000 nM; with `CSc1nc(-c2cn3c(n2)-c2ccc(Br)cc2OCC3)n(C(C)C)n1`, < 1000 nM.

Turning to `Cc1nc(-c2cn3c(n2)-c2ccc(-c4cnn(C5CN(C(=O)[C@H](C)O)C5)c4)cc2OCC3)n(C(C)C)n1`, the IC50 is < 1000 nM.

For the compound `CC(C)n1ncnc1-c1cn2c(n1)-c1ccc(CC(=O)NO)cc1OCC2`, the concentration for half-maximal inhibition (IC50) was < 1000 nM. On to `O=C1CCCN1CCNc1cc2c(cn1)-c1nc(-c3ncnn3-c3ccc(F)cc3F)cn1CCO2`, for which the IC50 was < 1000 nM. As to `CC(C)(Oc1ccc2c(c1)OCCn1cc(-c3ncnn3CC(F)(F)F)nc1-2)C(N)=O`, the IC50 was < 1000 nM. Turning to `Nc1nc(-c2cn3c(n2)-c2cc(-c4ccc(Cl)cc4)ccc2OCC3)n(-c2ccccc2Cl)n1`, the IC50 was < 1000 nM. As to `CC(C)(CO)N1CCC(c2ccc3c(c2)-c2nn(-c4ncnn4-c4ccc(F)cc4F)cc2CCO3)CC1`, the IC50 was < 1000 nM. With `CC(C)n1ncnc1-c1cn2c(n1)-c1ccc(N3CCC[C@H]3C(N)=O)cc1OCC2` the figure was < 1000 nM; with `NC(=O)CN1CCC(c2ccc3c(c2)-n2nc(-c4ncnn4CC(F)(F)F)cc2CCO3)CC1`, < 1000 nM. With `Cc1ncc(-c2ccc3c(c2)OCCn2cc(-c4ncnn4C(C)C)nc2-3)[nH]1` the figure was < 1000 nM; with `Cc1nc(-c2cn3c(n2)-c2cnc(N)cc2OCC3)n(CC(F)(F)F)n1`, < 1000 nM; with `CO[C@H]1CCN(c2cc3c(cn2)-c2nc(-c4ncnn4C(C)C)cn2CCO3)[C@@H]1C(N)=O`, < 1000 nM. With `COC[C@H](Nc1ccc2c(c1)OCCn1cc(-c3ncnn3CC(F)(F)F)nc1-2)C(N)=O` the figure was < 1000 nM; with `CC(C)n1ncnc1-c1cn2c(n1)-c1cnc(O[C@@H](C)C(N)=O)cc1OCC2`, < 1000 nM. For `CC(C)n1ncnc1-c1cn2c(n1)-c1ccc(Br)cc1OCC2`, the IC50 is < 1000 nM.

As to `CC(C)n1nc(CN(C)C)nc1-c1cn2c(n1)-c1ccccc1OCC2`, the IC50 was < 1000 nM. As for `CC(C)n1ncnc1-c1cn2c(n1)-c1ccc(C3CCN(CC(=O)NC(C)(C)C)CC3)cc1OCC2`, the half-inhibitory concentration (IC50) was < 1000 nM. As for `Cc1n[nH]c(-c2cn3c(n2)-c2ccc(-c4cnn(CCO)c4)cc2OCC3)n1`, the concentration for half-maximal inhibition (IC50) was < 1000 nM. For `CC(C)n1ncnc1-n1cc2c(n1)-c1ccc(C3CN(CC(N)=O)C3)cc1OCC2`, the IC50 is < 1000 nM. With `Cc1nc(-c2cn3c(n2)-c2ccc(-c4cnn(C)c4)cc2OCC3)n(C(C)C)n1` the figure was < 1000 nM; with `CC(C)n1ncnc1-c1cc2n(n1)-c1cc(C(=O)Nc3cnn(CCO)c3)ccc1OCC2`, < 1000 nM. On to `CC(C)n1ncnc1-c1cn2c(n1)-c1ccc(-c3cn(C)c(CC(C)(C)O)n3)cc1OCC2`, for which the IC50 is < 1000 nM. With `CC(C)n1ncnc1-c1cn2c(n1)-c1ccc(C3=NC(C)(C)CO3)cc1OCC2` the figure was < 1000 nM. For the compound `CC(C)(CO)NC(=O)c1ccc2c(c1)-c1nc(-c3nccn3-c3ccccc3Cl)cn1CCO2`, the IC50 was < 1000 nM.

Regarding `O=C(c1ccc2c(c1)-c1nc(-c3ncnn3CC(F)(F)F)cn1CCO2)N1CCOCC1`, the IC50 was < 1000 nM. With `CC(C)n1ncnc1-c1cn2c(n1)-c1ccc(C3CN(CCS(C)(=O)=O)C3)cc1OCC2` the figure was < 1000 nM; with `CCN(CC)CCn1cc(-c2ccc3c(c2)OCCn2cc(-c4ncnn4C(C)C)nc2-3)cn1`, < 1000 nM.

Turning to `CC(C)n1ncnc1-c1cn2c(n1)-c1cnc(N3CC[C@H](C#N)C3)cc1OCC2`, the half-inhibitory concentration (IC50) is < 1000 nM. With `COc1ccc(CNc2cc3c(cn2)-c2nc(-c4ncnn4CC(F)(F)F)cn2CCO3)cc1OC` the figure was < 1000 nM; with `CS(=O)(=O)CCNC(=O)c1ccc2c(c1)OCCn1cc(-c3ncnn3-c3ccccc3Cl)nc1-2`, < 1000 nM. Turning to `Cc1nc(-c2ccc3c(c2)OCCn2cc(-c4ncnn4C(C)C)nc2-3)cn1C`, the IC50 is < 1000 nM.

Regarding `CC(C)n1nc(N)nc1-c1cn2c(n1)-c1ccc(C3CC3)cc1OCC2`, the IC50 is < 1000 nM. With `CC(C)n1nc(CO)nc1-c1cn2c(n1)-c1ccccc1OCC2` the figure was < 1000 nM.

Consider `CC(C)n1ncnc1-c1cn2c(n1)-c1ccc(C(=O)NCCS(C)(=O)=O)cc1OCC2`, for which the IC50 was < 1000 nM. With `CC(C)n1ncnc1-c1cn2c(n1)-c1cnc(N[C@H](C)C(N)=O)cc1OCC2` the figure was < 1000 nM; with `CNC(=O)CN1CCN(c2ccc3c(n2)OCCn2cc(-c4ncnn4C(C)C)nc2-3)CC1`, < 1000 nM; with `Cc1nc(-c2cn3c(n2)-c2ccc(-c4cn(CCO)cn4)cc2OCC3)n(C(C)C)n1`, < 1000 nM. With `Clc1ccccc1-n1ncnc1-c1cn2c(n1)-c1cc(-c3cncnc3)ccc1OCC2` the figure was < 1000 nM; with `CC(C)n1ncnc1-c1cn2c(n1)-c1ccc([C@H]3C[C@H]4CC[C@@H](C3)N4CC(N)=O)cc1OCC2`, < 1000 nM; with `COCCN1CCC(c2ccc3c(c2)OCCn2cc(-c4ncnn4C(C)C)nc2-3)CC1`, < 1000 nM. Regarding `CC(C)n1nc(N)nc1-c1cn2c(n1)-c1cc(C(F)(F)F)ccc1OCC2`, the IC50 is < 1000 nM. In the case of `CC(C)n1nc(N)nc1-c1cn2c(n1)-c1ccc(-c3ccc(Cl)cc3)cc1OCC2`, the IC50 is < 1000 nM. With `Cc1nc(-c2cn3c(n2)-c2cnc(N4CC[C@@H](O)[C@H]4C(N)=O)cc2OCC3)n(C(C)C)n1` the figure was < 1000 nM; with `CC(C)n1ncnc1-c1cn2c(n1)-c1ccc(COC(N)=O)cc1OCC2`, < 1000 nM; with `CNC(=O)c1ccc2c(c1)OCCn1cc(-c3ncnn3-c3ccccc3Cl)nc1-2`, < 1000 nM. With `OCc1nc(-c2cn3c(n2)-c2cnc(N4CCCC4)cc2OCC3)n(CC(F)(F)F)n1`, the IC50 is < 1000 nM. With `CC(C)n1nc(C2CC2)nc1-c1cn2c(n1)-c1ccc(Br)cc1OCC2` the figure was < 1000 nM. With `CC(C)n1ccnc1-c1cn2c(n1)-c1cnccc1OCC2` the figure was < 1000 nM. With `CC(C)n1ncnc1-c1cn2c(n1)-c1cnc(N[C@@H](C)C(N)=O)cc1OCC2` the figure was < 1000 nM.

As to `CCc1ccccc1-c1cn2c(n1)-c1ccc(C(=O)OC)cc1OCC2`, the IC50 is < 1000 nM. `CC(C)n1nc(N)nc1-c1cn2c(n1)-c1ccc(-c3cn(CCO)cn3)cc1OCC2`: the IC50 is < 1000 nM. With `CC(C)n1ncnc1-c1cn2c(n1)-c1ccc(N3CCC[C@@H]3C(N)=O)cc1OCC2` the figure was < 1000 nM. With `Cc1nc(-c2cn3c(n2)-c2ccc(-c4cncnc4)cc2OCC3)n(C(C)C)n1` the figure was < 1000 nM.
